Assay results published in PubChem BioAssay AID330 (DTP/NCI, 2004).
“And” between values parts separate entries of the source, which are not always exact repeats. Equal entries are not always repeated. Inconclusive results and toxic doses are left out. The calls were made as follows: active = survival T/C of 150% or more; inactive = T/C below 125% in these data. Peptide text beside a SMILES is read from it. * marks the point of attachment. Cbz = O=C(OCc1ccccc1)*; OtBu = CC(C)(C)O*

Test system: P388 leukemia ip, CD2F1 mice, survival T/C
Assay: NCI In Vivo Anticancer Drug Screen. Data for tumor model P388 Leukemia (intraperitoneal) in CD2F1 (CDF1) mice
Conditions: endpoint: median survival time, higher = longer survival
Method in brief: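 Mice carrying the transplanted tumor received test compound or vehicle. Survival was recorded in each group, and the value is the treated-group measurement divided by that of the vehicle-treated control group.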

[1] = dose: 25.0 mg/kg/injection, schedule: Q01DX005 (ip), vehicle: Klucel (hydroxypropylcellulose) (HPC)
[2] = dose: 50.0 mg/kg/injection, schedule: Q01DX005 (ip), vehicle: Klucel (hydroxypropylcellulose) (HPC)
[3] = dose: 100.0 mg/kg/injection, schedule: Q01DX005 (ip), vehicle: Klucel (hydroxypropylcellulose) (HPC)
[4] = dose: 50.0 mg/kg/injection, schedule: Q01DX009 (ip), vehicle: saline
[5] = dose: 100.0 mg/kg/injection, schedule: Q01DX009 (ip), vehicle: saline
[6] = dose: 12.5 mg/kg/injection, schedule: Q01DX009 (ip), vehicle: saline with Tween-80
[7] = dose: 25.0 mg/kg/injection, schedule: Q01DX009 (ip), vehicle: saline with Tween-80
[8] = dose: 50.0 mg/kg/injection, schedule: Q01DX009 (ip), vehicle: saline with Tween-80
[9] = dose: 50.0 mg/kg/injection, schedule: Q01DX005 (ip), vehicle: saline with Tween-80
[10] = dose: 100.0 mg/kg/injection, schedule: Q01DX005 (ip), vehicle: saline with Tween-80
[11] = dose: 200.0 mg/kg/injection, schedule: Q01DX005 (ip), vehicle: saline with Tween-80
[12] = dose: 100.0 mg/kg/injection, schedule: Q04DX003 (ip), vehicle: saline with Tween-80
[13] = dose: 200.0 mg/kg/injection, schedule: Q04DX003 (ip), vehicle: saline with Tween-80
[14] = dose: 100.0 mg/kg/injection, schedule: Q01DX009 (ip), vehicle: saline with Tween-80

Measured: T/C

C=C1CC(c2ccc(S(=O)(=O)N3CCOCC3)cc2)OC1=O (centres undefined)
inactive: [1] 104 % of control | [2] 120 % of control | [3] 113 % of control

CCn1c(N)c(C(=S)NC)c(=O)n(CC)c1=O
inactive: [4] 100 % of control | [5] 96 % of control

Cc1ccc(C(O)(CS(C)=O)c2ccco2)cc1 (centres undefined)
inactive: [6] 100 % of control | [7] 100 % of control | [8] 100 % of control

CN1C(=O)C2C(N(C3OC(CO)C(O)C3O)C1=O)C2(Cl)Cl (centres undefined)
inactive: dose: 75.0 mg/kg/injection, schedule: Q04DX003 (ip), vehicle: saline 100 % of control | dose: 100.0 mg/kg/injection, schedule: Q04DX003 (ip), vehicle: saline 100 % of control | dose: 150.0 mg/kg/injection, schedule: Q04DX003 (ip), vehicle: saline 99 % of control | dose: 200.0 mg/kg/injection, schedule: Q04DX003 (ip), vehicle: saline 99 % of control | dose: 300.0 mg/kg/injection, schedule: Q04DX003 (ip), vehicle: saline 102 % of control | dose: 400.0 mg/kg/injection, schedule: Q04DX003 (ip), vehicle: saline 99 % of control

NC(Cc1ccc(O)c(Cl)c1)C(=O)O (centres undefined)
inactive: dose: 50.0 mg/kg/injection, schedule: Q01DX005 (ip), vehicle: saline 98 % of control | dose: 100.0 mg/kg/injection, schedule: Q01DX005 (ip), vehicle: saline 98 % of control | dose: 200.0 mg/kg/injection, schedule: Q01DX005 (ip), vehicle: saline 95 % of control

Clc1ccc(C(CCOc2ccccc2Br)Cn2ccnc2)c(Cl)c1 (centres undefined)
inactive: [6] 89 % of control | [7] 90 % of control | [8] 101 % of control and 94 % of control

COc1cccc(/C=C2/C(=O)N(c3ccccc3)N=C2C)c1OC
inactive: dose: 60.0 mg/kg/injection, schedule: Q01DX005 (ip), vehicle: Klucel (hydroxypropylcellulose) (HPC) 101 % of control | dose: 120.0 mg/kg/injection, schedule: Q01DX005 (ip), vehicle: Klucel (hydroxypropylcellulose) (HPC) 100 % of control | dose: 240.0 mg/kg/injection, schedule: Q01DX005 (ip), vehicle: Klucel (hydroxypropylcellulose) (HPC) 110 % of control

CN1C(=O)N(C)C(=O)C(Nc2ccc([N+](=O)[O-])cc2)(SCCO)C1=O
inactive: [9] 100 % of control | [10] 104 % of control | [11] 104 % of control

N=C(N)c1ccc(/C=C/c2ccc(C(=N)N)cc2O)cc1
inactive: dose: 12.5 mg/kg/injection, schedule: Q01DX009 (ip), vehicle: water 111 % of control | dose: 22.0 mg/kg/injection, schedule: Q01DX009 (ip), vehicle: water 120 % of control | dose: 25.0 mg/kg/injection, schedule: Q01DX009 (ip), vehicle: water 120 % of control

N=C(N)c1ccc2oc(/C=C/c3ccc(-c4cc5cc(C(=N)N)ccc5o4)cc3)cc2c1
inactive: [2] 98 % of control | [3] 104 % of control | dose: 200.0 mg/kg/injection, schedule: Q01DX005 (ip), vehicle: Klucel (hydroxypropylcellulose) (HPC) 104 % of control

CC(C)CC(NC(=O)C(Cc1ccccc1)NC(=O)C1CCCN1C(=O)OCc1ccccc1)C(=O)OC(C)(C)C (stereo not drawn) (Cbz-Pro-Phe-Leu-OtBu; configuration not given here)
inactive: [9] 100 % of control | [10] 100 % of control | [11] 91 % of control

O=C1Nc2ccccc2C1NC(=S)Nc1ccccc1 (centres undefined)
inactive: dose: 60.0 mg/kg/injection, schedule: Q01DX005 (ip), vehicle: saline with Tween-80 96 % of control | dose: 120.0 mg/kg/injection, schedule: Q01DX005 (ip), vehicle: saline with Tween-80 94 % of control

Cn1ccccc1=NCC(N)=O
inactive: dose: 100.0 mg/kg/injection, schedule: Q04DX002 (ip), vehicle: saline 99 % of control | dose: 200.0 mg/kg/injection, schedule: Q04DX002 (ip), vehicle: saline 104 % of control | dose: 400.0 mg/kg/injection, schedule: Q04DX002 (ip), vehicle: saline 102 % of control

CN(c1ccccc1)c1cc2c(cc1[N+](=O)[O-])no[n+]2[O-]
inactive: dose: 7.5 mg/kg/injection, schedule: Q01DX009 (ip), vehicle: saline 100 % of control and 86 % of control and 97 % of control | dose: 15.0 mg/kg/injection, schedule: Q01DX009 (ip), vehicle: saline 107 % of control and 94 % of control | dose: 30.0 mg/kg/injection, schedule: Q01DX009 (ip), vehicle: saline 105 % of control and 95 % of control | dose: 60.0 mg/kg/injection, schedule: Q01DX009 (ip), vehicle: saline 100 % of control and 101 % of control and 92 % of control

CC/C(=N/NS(=O)(=O)c1ccc(C)cc1)c1ccc(C(C)(C)C)cc1
inactive: [4] 99 % of control and 96 % of control | [5] 102 % of control | dose: 200.0 mg/kg/injection, schedule: Q01DX009 (ip), vehicle: saline 102 % of control and 87 % of control

CCCCOc1cc([N+](=O)[O-])ccc1CO
inactive: [12] 100 % of control | [13] 100 % of control | dose: 400.0 mg/kg/injection, schedule: Q04DX003 (ip), vehicle: saline with Tween-80 95 % of control

C(=N\N1CCCCCC1)/c1ccc2c(c1)OCO2
inactive: [7] 90 % of control | [8] 95 % of control | [14] 90 % of control

O=C(NC1CCCCC1)OCc1c(COC(=O)NC2CCCCC2)c(-c2ccc(Cl)c(Cl)c2)n2c1CCCC2
inactive: dose: 12.5 mg/kg/injection, schedule: Q01DX009 (ip), vehicle: distilled water + Tween-80 96 % of control | dose: 25.0 mg/kg/injection, schedule: Q01DX009 (ip), vehicle: distilled water + Tween-80 89 % of control and 91 % of control | dose: 50.0 mg/kg/injection, schedule: Q01DX009 (ip), vehicle: distilled water + Tween-80 87 % of control and 96 % of control | dose: 100.0 mg/kg/injection, schedule: Q01DX009 (ip), vehicle: distilled water + Tween-80 99 % of control and 100 % of control | dose: 200.0 mg/kg/injection, schedule: Q01DX009 (ip), vehicle: distilled water + Tween-80 99 % of control and 116 % of control | dose: 400.0 mg/kg/injection, schedule: Q01DX009 (ip), vehicle: distilled water + Tween-80 116 % of control

O=C(O)C1C2OC(C(Cl)C2Cl)C1C(=O)O (centres undefined)
inactive: dose: 15.0 mg/kg/injection, schedule: Q01DX005 (ip), vehicle: saline 97 % of control | dose: 30.0 mg/kg/injection, schedule: Q01DX005 (ip), vehicle: saline 94 % of control | dose: 60.0 mg/kg/injection, schedule: Q01DX005 (ip), vehicle: saline 95 % of control | dose: 120.0 mg/kg/injection, schedule: Q01DX005 (ip), vehicle: saline 87 % of control

CC(c1ccccc1)N1OC1(C)C (centres undefined)
inactive: dose: 12.5 mg/kg/injection, schedule: Q01DX005 (ip), vehicle: Klucel (hydroxypropylcellulose) (HPC) 101 % of control | [1] 106 % of control | [2] 102 % of control

COC(C(=O)N/C(N)=N/O)c1c(Cl)cccc1Cl (centres undefined)
inactive: [2] 98 % of control | [3] 109 % of control

O=c1[nH]cc(-c2ccccc2)c(=O)[nH]1
inactive: dose: 100.0 mg/kg/injection, schedule: Q01DX001 (ip), vehicle: Klucel (hydroxypropylcellulose) (HPC) 100 % of control | dose: 200.0 mg/kg/injection, schedule: Q01DX001 (ip), vehicle: Klucel (hydroxypropylcellulose) (HPC) 98 % of control | dose: 400.0 mg/kg/injection, schedule: Q01DX001 (ip), vehicle: Klucel (hydroxypropylcellulose) (HPC) 96 % of control

Cc1ccc(O)c(C(c2cc(C)ccc2O)c2ccccc2Cl)c1
inactive: [8] 108 % of control | [14] 108 % of control | dose: 200.0 mg/kg/injection, schedule: Q01DX009 (ip), vehicle: saline with Tween-80 103 % of control

CCOC(=O)C(CC)c1ccncc1C (centres undefined)
inactive: dose: 25.0 mg/kg/injection, schedule: Q04DX002 (ip), vehicle: saline with Tween-80 106 % of control | dose: 50.0 mg/kg/injection, schedule: Q04DX002 (ip), vehicle: saline with Tween-80 114 % of control | dose: 100.0 mg/kg/injection, schedule: Q04DX002 (ip), vehicle: saline with Tween-80 118 % of control | dose: 200.0 mg/kg/injection, schedule: Q04DX002 (ip), vehicle: saline with Tween-80 110 % of control

CC(C)(C)c1cc(C(C)(C)O)c2c(c1)C(C)(C)OS2
inactive: dose: 50.0 mg/kg/injection, schedule: Q04DX003 (ip), vehicle: saline with Tween-80 99 % of control | [12] 106 % of control | [13] 100 % of control

C=C(C)CC1(C)CC(=O)C(C)=C(C)C1=O (centres undefined)
inactive: dose: 25.0 mg/kg/injection, schedule: Q04DX003 (ip), vehicle: Klucel (hydroxypropylcellulose) (HPC) 110 % of control | dose: 50.0 mg/kg/injection, schedule: Q04DX003 (ip), vehicle: Klucel (hydroxypropylcellulose) (HPC) 105 % of control | dose: 100.0 mg/kg/injection, schedule: Q04DX003 (ip), vehicle: Klucel (hydroxypropylcellulose) (HPC) 100 % of control
